In patent US11076595B2, “1-(n,n-disubstituted carbamoyl) 4-(substituted sulfonyl)triazolin-5-one derivative, 4-(n,n-disubstituted carbamoyl) 1-(substituted sulfonyl)triazolin-5-one derivative, and herbicide containing said derivative as active ingredient” (HOKKO CHEMICAL INDUSTRY CO., LTD., priority 2017, dated 2021):

Assays:
Type in all cases: in vivo
Echinochloa crus-galli [1] = test: Test Example 1: herbicidal effect test by soil treatment in paddy field; conditions: 120 g/10a, paddy soil treatment just after sowing, 14 days after treatment
Summary of the method: (§1)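 In a greenhouse, puddled paddy soil in Wagner pots held ~3 cm flooding over freshly sown seeds. Treatment was dropwise application of the diluted formulation, 120 g a.i. per 10 are, with two replications; suppression was scored from dry weights after 14 days.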

Lindernia pyxidaria [2] = test: as above; conditions: 120 g/10a, paddy soil treatment just after sowing, 14 days after treatment
Summary of the method: as §1

Monochoria vaginalis [3] = test: as above; conditions: 120 g/10a, paddy soil treatment just after sowing, 14 days after treatment
Summary of the method: as §1

Scirpus juncoides [4] = test: as above; conditions: 120 g/10a, paddy soil treatment just after sowing, 14 days after treatment
Summary of the method: as §1

Echinochloa crus-galli [5] = test: Test Example 2: herbicidal effect test by treatment during growing period in paddy field; conditions: treatment 7 days after sowing, 120 g/10a, evaluated 14 days after treatment
Summary of the method: (§2)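 Paddy soil in Wagner pots, flooded to ~3 cm; 30 seeds per species sown 0–1 cm deep, greenhouse-grown. Emulsifiable concentrate diluted in water and dripped into flood water 7 days after sowing at 120 g active ingredient per 10 are. Dry-weight suppression vs untreated assessed 14 days post-treatment, two replicates.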

Lindernia pyxidaria [6] = test: as above; conditions: treatment 7 days after sowing, 120 g/10a, evaluated 14 days after treatment
Summary of the method: as §2

Monochoria vaginalis [7] = test: as above; conditions: treatment 7 days after sowing, 120 g/10a, evaluated 14 days after treatment
Summary of the method: as §2

Scirpus juncoides [8] = test: as above; conditions: treatment 7 days after sowing, 120 g/10a, evaluated 14 days after treatment
Summary of the method: as §2

Amaranthus viridis [9] = test: Test Example 3: herbicidal effect test by soil treatment in upland field; conditions: upland field soil treatment 1 day after sowing; 120 g/10a; evaluated 14 days after treatment
Protocol: (§3) This test was performed with two replications per one formulation concentration plot, and 14 days after the formulation treatments, the weed suppression rate (%) was determined according to the following equation (Math. 1). Weed suppression rate (%)=(1−an average dry weight (g) of plants in treated plots/an average dry weight (g) of plants in untreated plots)×100 [Math. 1]
(§4) A pot having a size of 36 cm^2 was filled with field soil (alluvial soil) and after uniformly mixing the soil of the surface layer of 1 cm with 20 grains of each weed seed of crabgrass, Echinochloa crus-galli, Chenopodium album and Amaranthus viridis, the surface layer was pressed lightly. One day after the sowing, an emulsifiable concentrate prepared according to Formulation Example 5 by using the compound shown in Table 7 below was diluted with water, and the water-diluted formulation was sprayed on the soil surface at a ratio of 100 liter per 10 are. The application rate of the active ingredient, by conversion, corresponded to 120 g per 10 are. Fourteen days after the formulation treatment, the herbicidal effect was evaluated by the same criteria as in Test Example 1.

Chenopodium album [10] = test: as above; conditions: upland field soil treatment 1 day after sowing; 120 g/10a; evaluated 14 days after treatment
Protocol: as §3, §4

Echinochloa crus-galli [11] = test: as above; conditions: upland field soil treatment 1 day after sowing; 120 g/10a; evaluated 14 days after treatment
Protocol: as §3, §4

crabgrass [12] = test: as above; conditions: upland field soil treatment 1 day after sowing; 120 g/10a; evaluated 14 days after treatment
Protocol: as §3, §4

Amaranthus viridis [13] = test: Test Example 4: herbicidal effect test by foliage treatment in upland field; conditions: upland field foliage treatment 7 days after sowing; 120 g/10a; evaluated 14 days after treatment
Summary of the method: (§5)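 In this upland pot test, each species is sown at 20 seeds per pot. Spraying follows one week later at a dose of 120 g active ingredient per 10 are. Weed suppression, calculated from average dry weights, is determined 14 days afterward.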

Chenopodium album [14] = test: as above; conditions: upland field foliage treatment 7 days after sowing; 120 g/10a; evaluated 14 days after treatment
Summary of the method: as §5

Echinochloa crus-galli [15] = test: as above; conditions: upland field foliage treatment 7 days after sowing; 120 g/10a; evaluated 14 days after treatment
Summary of the method: as §5

crabgrass [16] = test: as above; conditions: upland field foliage treatment 7 days after sowing; 120 g/10a; evaluated 14 days after treatment
Summary of the method: as §5

Row | Structure (SMILES) | weed suppression rate, Echinochloa crus-galli (Echinochloa crus-galli [1]) [%] | weed suppression rate, Lindemia pyxidaria (Lindernia pyxidaria [2]) [%] | weed suppression rate, Monochoria vaginalis (Monochoria vaginalis [3]) [%] | weed suppression rate, Scirpus juncoides (Scirpus juncoides [4]) [%] | weed suppression rate, Echinochloa crus-galli (Echinochloa crus-galli [5]) [%] | weed suppression rate, Lindemia pyxidaria (Lindernia pyxidaria [6]) [%] | weed suppression rate, Monochoria vaginalis (Monochoria vaginalis [7]) [%] | weed suppression rate, Scirpus juncoides (Scirpus juncoides [8]) [%] | herbicidal effect (weed suppression rate), Amaranthus viridis (Amaranthus viridis [9]) [%] | herbicidal effect (weed suppression rate), Chenopodium album (Chenopodium album [10]) [%] | herbicidal effect (weed suppression rate), Echinochloa crus-galli (Echinochloa crus-galli [11]) [%] | herbicidal effect (weed suppression rate), Crabgrass (crabgrass [12]) [%] | herbicidal effect (weed suppression rate), Amaranthus viridis (Amaranthus viridis [13]) [%] | herbicidal effect (weed suppression rate), Chenopodium album (Chenopodium album [14]) [%] | herbicidal effect (weed suppression rate), Echinochloa crus-galli (Echinochloa crus-galli [15]) [%] | herbicidal effect (weed suppression rate), Crabgrass (crabgrass [16]) [%]
1 | CC(C)N(C(=O)n1ncn(S(=O)(=O)C2CC2)c1=O)c1c(F)cccc1F [Compound 1-200] | 100 | 100 | 80 | 100 | 100 | 80 | 90 | 100 | 40 | 40 | 100 | 100 | 80 | 70 | 100 | 100
2 | CC(C)N(C(=O)n1ncn(S(=O)(=O)C(C)C)c1=O)c1cccnc1F [Compound 1-241] | 100 | 90 | 90 | 80 | 100 | 90 | 80 | 80 | 90 | 90 | 90 | 90 | 50 | 70 | 90 | 90
3 | CC(C)N(C(=O)n1ncn(S(=O)(=O)N(C)C)c1=O)c1ccc(F)cc1F [Compound 1-1103] | 90 | 80 | 80 | 90 | 90 | 80 | 80 | 90 | 60 | 60 | 100 | 100 | 90 | 80 | 80 | 90
4 | CC(C)N(C(=O)n1ncn(S(=O)(=O)N(C)C)c1=O)c1ccc(F)cc1 [Compound 1-1095] | 90 | 80 | 80 | 90 | 90 | 80 | 80 | 90 | 90 | 80 | 80 | 90 | 90 | 80 | 80 | 90
5 | CC(C)N(C(=O)n1ncn(S(=O)(=O)C2CC2)c1=O)c1ccc(F)cc1Cl [Compound 1-214] | 90 | 80 | 80 | 90 | 90 | 80 | 80 | 90 | 90 | 80 | 80 | 90 | 90 | 80 | 80 | 90
6 | CC(C)N(C(=O)n1ncn(S(=O)(=O)C2CCCCC2)c1=O)c1ccc(Cl)cc1Br [Compound 1-318] | 100 | 90 | 90 | 100 | 100 | 80 | 80 | 80 | 50 | 50 | 100 | 100 | 60 | 60 | 80 | 80
7 | CC(C)N(C(=O)n1ncn(S(=O)(=O)C2CC2)c1=O)c1ccc(Cl)cn1 [Compound 1-244] | 100 | 100 | 90 | 90 | 100 | 100 | 90 | 90 | 50 | 40 | 80 | 90 | 0 | 40 | 90 | 90
